# Data reported in the supplement of paper PMC10307832.
# How the values were obtained:
# Test in all cases: relative viability (nuclei count vs DMSO), 5 days (fraction); higher = more cells survive
# NCI-H1793 = test system: NCI-H1793
# How it was run: (§1)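 Lung cancer cell lines were seeded in 1536-well plates and dosed by pin tool the next day, with either a single drug or a fixed anchor-drug dose combined with five library-drug doses (not always all listed) spaced in √10 steps. Five days later, one step fixed the cells and stained their nuclei (final 0.05% Triton X-100, 1% formaldehyde, 1 ug/ml Hoechst), and nuclei were counted on 4× images. Relative viability is the nuclei count in treated wells divided by the count in vehicle wells, and each value is the median of duplicate plates.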
# HCC-44 = test system: HCC-44
# How it was run: as §1
# NCI-H1355 = test system: NCI-H1355
# How it was run: as §1
# NCI-H520 = test system: NCI-H520
# How it was run: as §1
# NCI-H596 = test system: NCI-H596
# How it was run: as §1
# H3255 = test system: H3255
# How it was run: as §1
# NCI-H441 = test system: NCI-H441
# How it was run: as §1
# LCLC-103H = test system: LCLC-103H
# How it was run: as §1
# NCI-H647 = test system: NCI-H647
# How it was run: as §1
# HCC-827 = test system: HCC-827
# How it was run: as §1
# EKVX = test system: EKVX
# How it was run: as §1
# NCI-H1755 = test system: NCI-H1755
# How it was run: as §1
# HOP-62 = test system: HOP-62
# How it was run: as §1
# HCC-15 = test system: HCC-15
# How it was run: as §1
# PC-3 [JPC-3] = test system: PC-3 [JPC-3]
# How it was run: as §1
# NCI-H2009 = test system: NCI-H2009
# How it was run: as §1
# UMC-11 = test system: UMC-11
# How it was run: as §1
# EPLC-272H = test system: EPLC-272H
# How it was run: as §1
# 201T = test system: 201T
# How it was run: as §1
# COR-L 105 = test system: COR-L 105
# How it was run: as §1
# SK-LU-1 = test system: SK-LU-1
# How it was run: as §1
# NCI-H1437 = test system: NCI-H1437
# How it was run: as §1
# CAL-12T = test system: CAL-12T
# How it was run: as §1
# NCI-H322M = test system: NCI-H322M
# How it was run: as §1
# NCI-H522 = test system: NCI-H522
# How it was run: as §1
compound,measurement,setting,value
Nc1cccc2c1CN(C1CCC(=O)NC1=O)C2=O (configuration not stated) [Lenalidomide] + Nc1nc2[nH]cc(CCc3ccc(C(=O)N[C@@H](CCC(=O)O)C(=O)O)cc3)c2c(=O)[nH]1 [Pemetrexed] (partner 0.2 µM),relative viability,NCI-H1793; first compound 0.253 µM,0.921
same,relative viability,NCI-H1793; first compound 2.53 µM,1.15
same,relative viability,NCI-H1793; first compound 8 µM,0.411
same,relative viability,HCC-44; first compound 0.253 µM,0.616
same,relative viability,HCC-44; first compound 0.8 µM,0.638
same,relative viability,HCC-44; first compound 2.53 µM,0.631
same,relative viability,HCC-44; first compound 8 µM,0.762
same,relative viability,NCI-H1355; first compound 0.253 µM,1.08
same,relative viability,NCI-H1355; first compound 0.8 µM,0.784
same,relative viability,NCI-H1355; first compound 2.53 µM,1.13
same,relative viability,NCI-H1355; first compound 8 µM,0.738
same,relative viability,NCI-H520; first compound 0.253 µM,0.722
same,relative viability,NCI-H520; first compound 0.8 µM,0.607
same,relative viability,NCI-H520; first compound 2.53 µM,0.79
same,relative viability,NCI-H520; first compound 8 µM,0.689
same,relative viability,NCI-H596; first compound 0.253 µM,0.519
same,relative viability,NCI-H596; first compound 0.8 µM,0.4
same,relative viability,NCI-H596; first compound 2.53 µM,0.538
same,relative viability,NCI-H596; first compound 8 µM,0.48
same,relative viability,H3255; first compound 0.253 µM,0.65
same,relative viability,H3255; first compound 0.8 µM,0.565
same,relative viability,H3255; first compound 2.53 µM,0.585
same,relative viability,H3255; first compound 8 µM,0.605
same,relative viability,NCI-H441; first compound 0.253 µM,0.27
same,relative viability,NCI-H441; first compound 0.8 µM,0.273
same,relative viability,NCI-H441; first compound 2.53 µM,0.268
same,relative viability,NCI-H441; first compound 8 µM,0.242
same,relative viability,LCLC-103H; first compound 0.253 µM,0.488
same,relative viability,LCLC-103H; first compound 0.8 µM,0.476
same,relative viability,LCLC-103H; first compound 2.53 µM,0.474
same,relative viability,LCLC-103H; first compound 8 µM,0.458
same,relative viability,NCI-H647; first compound 0.253 µM,0.173
same,relative viability,NCI-H647; first compound 0.8 µM,0.164
same,relative viability,NCI-H647; first compound 2.53 µM,0.178
same,relative viability,NCI-H647; first compound 8 µM,0.182
same,relative viability,HCC-827; first compound 0.253 µM,0.276
same,relative viability,HCC-827; first compound 0.8 µM,0.269
same,relative viability,HCC-827; first compound 2.53 µM,0.252
same,relative viability,HCC-827; first compound 8 µM,0.304
same,relative viability,EKVX; first compound 0.253 µM,0.333
same,relative viability,EKVX; first compound 0.8 µM,0.33
same,relative viability,EKVX; first compound 2.53 µM,0.466
same,relative viability,EKVX; first compound 8 µM,0.396
same,relative viability,NCI-H1755; first compound 0.253 µM,0.441
same,relative viability,NCI-H1755; first compound 0.8 µM,0.452
same,relative viability,NCI-H1755; first compound 2.53 µM,0.691
same,relative viability,NCI-H1755; first compound 8 µM,0.448
same,relative viability,HOP-62; first compound 0.253 µM,0.356
same,relative viability,HOP-62; first compound 0.8 µM,0.376
same,relative viability,HOP-62; first compound 2.53 µM,0.287
same,relative viability,HOP-62; first compound 8 µM,0.381
same,relative viability,HCC-15; first compound 0.253 µM,0.219
same,relative viability,HCC-15; first compound 2.53 µM,0.231
same,relative viability,HCC-15; first compound 8 µM,0.228
same,relative viability,PC-3 [JPC-3]; first compound 0.253 µM,1.2
same,relative viability,PC-3 [JPC-3]; first compound 0.8 µM,0.755
same,relative viability,PC-3 [JPC-3]; first compound 2.53 µM,1.21
same,relative viability,PC-3 [JPC-3]; first compound 8 µM,1.08
same,relative viability,NCI-H2009; first compound 0.253 µM,0.988
same,relative viability,NCI-H2009; first compound 0.8 µM,1.05
same,relative viability,NCI-H2009; first compound 2.53 µM,1
same,relative viability,NCI-H2009; first compound 8 µM,1.08
same,relative viability,UMC-11; first compound 0.253 µM,0.93
same,relative viability,UMC-11; first compound 0.8 µM,0.72
same,relative viability,UMC-11; first compound 2.53 µM,0.84
same,relative viability,UMC-11; first compound 8 µM,0.8
same,relative viability,EPLC-272H; first compound 0.253 µM,0.328
same,relative viability,EPLC-272H; first compound 2.53 µM,0.356
same,relative viability,EPLC-272H; first compound 8 µM,0.359
same,relative viability,201T; first compound 0.253 µM,0.33
same,relative viability,201T; first compound 0.8 µM,0.325
same,relative viability,201T; first compound 2.53 µM,0.322
same,relative viability,201T; first compound 8 µM,0.287
same,relative viability,COR-L 105; first compound 0.253 µM,1.21
same,relative viability,COR-L 105; first compound 0.8 µM,1.16
same,relative viability,COR-L 105; first compound 2.53 µM,1.22
same,relative viability,COR-L 105; first compound 8 µM,1.2
same,relative viability,SK-LU-1; first compound 0.253 µM,1.04
same,relative viability,SK-LU-1; first compound 0.8 µM,1.07
same,relative viability,SK-LU-1; first compound 2.53 µM,1.12
same,relative viability,SK-LU-1; first compound 8 µM,1.11
same,relative viability,NCI-H1437; first compound 0.253 µM,0.294
same,relative viability,NCI-H1437; first compound 0.8 µM,0.33
same,relative viability,NCI-H1437; first compound 2.53 µM,0.327
same,relative viability,NCI-H1437; first compound 8 µM,0.323
same,relative viability,CAL-12T; first compound 0.253 µM,1.18
same,relative viability,CAL-12T; first compound 0.8 µM,1.32
same,relative viability,CAL-12T; first compound 2.53 µM,1.67
same,relative viability,CAL-12T; first compound 8 µM,1.57
same,relative viability,NCI-H322M; first compound 0.253 µM,0.631
same,relative viability,NCI-H322M; first compound 0.8 µM,0.635
same,relative viability,NCI-H322M; first compound 2.53 µM,0.664
same,relative viability,NCI-H322M; first compound 8 µM,0.697
same,relative viability,NCI-H522; first compound 0.253 µM,1.05
same,relative viability,NCI-H522; first compound 0.8 µM,0.912
same,relative viability,NCI-H522; first compound 2.53 µM,1.11
same,relative viability,NCI-H522; first compound 8 µM,0.663
